Values of other authors, collected in patent publication US11427542B2, “Compounds for treatment of cardiac arrhythmias and heart failure” (Elex Biotech, Inc., priority 2018, dated 2022).

Tested on: R176Q/+ mice
Details: cardiac pacing, versus placebo-treated

For `CCCCNc1ccc(C(=O)OCCN(CC)CC)c(OC)c1` [Compound 1], the “arrhythmic development (bidirectional VT / sustained polymorphic VT) following pacing” value is given as “protected from arrhythmic development following pacing”.
